Data reported in ChEMBL document CHEMBL5038669, “Development of the First Covalent Monopolar Spindle Kinase 1 (MPS1/TTK) Inhibitor” (J Med Chem, 2022).
Active and inactive are the calls of the source. The rule behind the calls is not given here.

Assays:
Hep 3B2 [1] = assay: Induction of apoptosis in human Hep3B cells assessed as increase in cleaved caspase-3 level at 200 nM measured upto 5 days by Western blot analysis; format: functional, cell-based; details: time day <=5
Huh-7 [2] = assay: Induction of cell senescence in human Huh-7 cells at 200 uM measured up to 5 days by SA-beta-gal-staining based assay; format: functional; details: time day <=5
Hep 3B2 [3] = assay: Induction of cell senescence in human Hep3B cells at 200 uM measured up to 5 days by SA-beta-gal-staining based assay; format: functional; details: time day <=5
SNU-387 [4] = assay: Induction of cell senescence in human SNU-387 cells at 200 uM measured up to 5 days by SA-beta-gal-staining based assay; format: functional; details: time day <=5
Hep 3B2 [5] = assay: Synergistic antiproliferative activity against human Hep3B cells at 200 nM measured after 5 days in presence of navitoclax by crystal violet staining based assay; format: functional, cell-based; details: time 5.0 day
SNU-387 [6] = assay: Synergistic antiproliferative activity against human SNU-387 cells at 200 nM measured after 5 days in presence of navitoclax by crystal violet staining based assay; format: functional, cell-based; details: time 5.0 day
[7] = molecular target: T1, Dual specificity protein kinase TTK (Homo sapiens, UniProt P33981); assay: Inhibition of recombinant human full length N-terminal GST-fused MPS1 (1 to 857 residues) using histone H3 as substrate by TR-FRET assay
T1 sequence (P33981 whole entry): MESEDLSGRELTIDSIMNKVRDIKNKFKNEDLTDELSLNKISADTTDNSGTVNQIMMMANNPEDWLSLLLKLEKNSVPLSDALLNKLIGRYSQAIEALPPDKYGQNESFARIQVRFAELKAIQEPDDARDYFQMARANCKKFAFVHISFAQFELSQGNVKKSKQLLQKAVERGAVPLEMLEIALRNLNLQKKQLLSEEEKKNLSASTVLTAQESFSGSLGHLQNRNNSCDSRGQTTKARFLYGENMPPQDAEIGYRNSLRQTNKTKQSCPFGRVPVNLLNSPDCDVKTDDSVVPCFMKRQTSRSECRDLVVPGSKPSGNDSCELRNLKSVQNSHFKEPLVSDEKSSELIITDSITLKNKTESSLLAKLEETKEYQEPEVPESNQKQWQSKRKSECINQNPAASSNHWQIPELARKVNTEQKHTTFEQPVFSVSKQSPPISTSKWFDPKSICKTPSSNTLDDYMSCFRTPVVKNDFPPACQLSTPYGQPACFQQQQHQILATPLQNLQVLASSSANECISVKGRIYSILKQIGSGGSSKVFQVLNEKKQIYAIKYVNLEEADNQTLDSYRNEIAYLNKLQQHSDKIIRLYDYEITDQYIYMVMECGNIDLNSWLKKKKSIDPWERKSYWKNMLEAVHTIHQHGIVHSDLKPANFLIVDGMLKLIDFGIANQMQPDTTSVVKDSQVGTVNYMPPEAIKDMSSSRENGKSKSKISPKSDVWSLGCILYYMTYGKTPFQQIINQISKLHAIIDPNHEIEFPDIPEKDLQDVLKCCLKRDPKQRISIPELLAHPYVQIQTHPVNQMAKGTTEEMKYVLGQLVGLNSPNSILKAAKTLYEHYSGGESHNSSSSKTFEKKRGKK

[8] = molecular target: T2, Dual specificity protein kinase TTK (Homo sapiens) (UniProt P33981); assay: Displacement of tracer K9 from NanoLuc-fused MPS1 (unknown origin) expressed in HEK293T cells at 10 fold IC50 preincubated for 2 hrs followed by compound washout by NanoBRET assay; format: cell-based
T2 sequence (whole entry): T1 sequence (P33981 whole entry)

COLO 205 = assay: Antiproliferative activity against human COLO 205 cells; format: functional, cell-based
HT-29 = assay: Antiproliferative activity against human HT-29 cells; format: functional, cell-based
HCC 2998 = assay: Antiproliferative activity against human HCC 2998 cells; format: functional, cell-based
KM12 = assay: Antiproliferative activity against human KM12 cells; format: functional, cell-based
HCT-15 = assay: Antiproliferative activity against human HCT-15 cells; format: functional, cell-based
HCT-116 = assay: Antiproliferative activity against human HCT-116 cells; format: functional, cell-based
SNU-387 [9] = assay: Antiproliferative activity against human SNU-387 cells incubated for 5 days by XTT assay; format: functional, cell-based; details: time 5.0 day
SK-HEP1 = assay: Antiproliferative activity against human SK-HEP1 cells incubated for 5 days by XTT assay; format: functional, cell-based; details: time 5.0 day
Hep 3B2 [10] = assay: Antiproliferative activity against human Hep3B cells incubated for 5 days by XTT assay; format: functional, cell-based; details: time 5.0 day
HuH-6 = assay: Antiproliferative activity against human HuH-6 cells incubated for 5 days by XTT assay; format: functional, cell-based; details: time 5.0 day
Huh-7 [11] = assay: Antiproliferative activity against human Huh-7 cells incubated for 5 days by XTT assay; format: functional, cell-based; details: time 5.0 day
PLC-PRF-5 = assay: Antiproliferative activity against human Alex cells incubated for 5 days by XTT assay; format: functional, cell-based; details: time 5.0 day
HLE = assay: Antiproliferative activity against human HLE cells incubated for 5 days by XTT assay; format: functional, cell-based; details: time 5.0 day
HLF = assay: Antiproliferative activity against human HLF cells incubated for 5 days by XTT assay; format: functional, cell-based; details: time 5.0 day
Huh-7 [12] = assay: Induction of apoptosis in human Huh-7 cells assessed as increase in p21 expression level at 200 nM measured upto 5 days by Western blot analysis; format: functional, cell-based; details: time day <=5
Hep 3B2 [13] = assay: Induction of apoptosis in human Hep3B cells assessed as increase in p21 expression level at 200 nM measured upto 5 days by Western blot analysis; format: functional, cell-based; details: time day <=5
SNU-387 [14] = assay: Induction of apoptosis in human SNU-387 cells assessed as increase in p21 expression level at 200 nM measured upto 5 days by Western blot analysis; format: functional, cell-based; details: time day <=5
Huh-7 [15] = assay: Induction of apoptosis in human Huh-7 cells assessed as increase in phospho-gammaH2A.X expression level at 200 nM measured upto 5 days by Western blot analysis; format: functional, cell-based; details: time day <=5
Hep 3B2 [16] = assay: Induction of apoptosis in human Hep3B cells assessed as increase in phospho-gammaH2A.X expression level at 200 nM measured upto 5 days by Western blot analysis; format: functional, cell-based; details: time day <=5
SNU-387 [17] = assay: Induction of apoptosis in human SNU-387 cells assessed as increase in phospho-gammaH2A.X expression level at 200 nM measured upto 5 days by Western blot analysis; format: functional, cell-based; details: time day <=5
[18] = molecular target: T3, Serine/threonine-protein kinase 17B (Homo sapiens) (UniProt O94768); details: dose 10.0 µM
T3 sequence (whole entry): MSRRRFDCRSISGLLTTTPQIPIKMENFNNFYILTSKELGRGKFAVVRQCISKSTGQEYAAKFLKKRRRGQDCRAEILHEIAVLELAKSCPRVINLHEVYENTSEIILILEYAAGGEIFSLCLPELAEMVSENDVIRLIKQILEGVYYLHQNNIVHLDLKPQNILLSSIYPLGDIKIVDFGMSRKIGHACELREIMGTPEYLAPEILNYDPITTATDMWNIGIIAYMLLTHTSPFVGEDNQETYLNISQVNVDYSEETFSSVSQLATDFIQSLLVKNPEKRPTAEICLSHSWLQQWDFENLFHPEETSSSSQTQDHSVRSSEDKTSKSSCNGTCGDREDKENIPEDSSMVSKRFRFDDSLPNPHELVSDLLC

C=CC(=O)Nc1cc(N2CCN(C)CC2)ccc1Nc1ncc2c(n1)-n1ccc(C(=O)Nc3c(CC)cccc3CC)c1CC2
Activity (Hep 3B2 [1]): Active
Activity (Huh-7 [2]): Active
Activity (Hep 3B2 [3]): Active
Activity (SNU-387 [4]): Active
Activity (Hep 3B2 [5]): Active
Activity (SNU-387 [6]): Active
IC50 [7]: 13 nM
Ki [7]: 0.83 nM
Activity [8]: 50%
Activity (COLO 205): Active
Activity (HT-29): Active
Activity (HCC 2998): Active
Activity (KM12): Active
Activity (HCT-15): Active
Activity (HCT-116): Active
Activity (SNU-387 [9]): Active
Activity (SK-HEP1): Active
Activity (Hep 3B2 [10]): Active
Activity (HuH-6): Active
Activity (Huh-7 [11]): Active
Activity (PLC-PRF-5): Active
Activity (HLE): Active
Activity (HLF): Active
Activity (Huh-7 [12]): Active
Activity (Hep 3B2 [13]): Active
Activity (SNU-387 [14]): Active
Activity (Huh-7 [15]): Active
Activity (Hep 3B2 [16]): Active
Activity (SNU-387 [17]): Active
ΔTm [18]: 11.9 °C
